Data published in ChEMBL document CHEMBL5291721, “A preclinical secondary pharmacology resource illuminates target-adverse drug reaction associations of marketed drugs” (Nat Commun, 2023).

How the values were obtained:
[1] = target: Growth hormone secretagogue receptor type 1 (Homo sapiens, UniProt Q92847)
[2] = target: T1, Equilibrative nucleoside transporter 1 (Homo sapiens, UniProt Q99808)
T1 sequence (Q99808 whole entry): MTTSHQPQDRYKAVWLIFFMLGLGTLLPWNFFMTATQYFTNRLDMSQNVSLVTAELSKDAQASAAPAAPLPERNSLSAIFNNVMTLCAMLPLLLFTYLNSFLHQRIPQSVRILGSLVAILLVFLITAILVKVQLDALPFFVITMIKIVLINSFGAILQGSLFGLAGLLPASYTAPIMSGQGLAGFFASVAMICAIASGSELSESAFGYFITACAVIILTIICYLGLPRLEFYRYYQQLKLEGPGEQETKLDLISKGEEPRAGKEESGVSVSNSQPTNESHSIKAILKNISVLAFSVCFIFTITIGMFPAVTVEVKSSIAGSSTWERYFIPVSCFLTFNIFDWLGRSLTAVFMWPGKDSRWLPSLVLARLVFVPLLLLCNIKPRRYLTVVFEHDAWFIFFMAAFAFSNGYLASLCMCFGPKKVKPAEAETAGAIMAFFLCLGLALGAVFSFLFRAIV

[3] = target: Gamma-aminobutyric acid receptor subunit alpha-1 (Rattus norvegicus, UniProt P62813); format: functional
Sequence of Gamma-aminobutyric acid receptor subunit alpha-1 (P62813 whole entry): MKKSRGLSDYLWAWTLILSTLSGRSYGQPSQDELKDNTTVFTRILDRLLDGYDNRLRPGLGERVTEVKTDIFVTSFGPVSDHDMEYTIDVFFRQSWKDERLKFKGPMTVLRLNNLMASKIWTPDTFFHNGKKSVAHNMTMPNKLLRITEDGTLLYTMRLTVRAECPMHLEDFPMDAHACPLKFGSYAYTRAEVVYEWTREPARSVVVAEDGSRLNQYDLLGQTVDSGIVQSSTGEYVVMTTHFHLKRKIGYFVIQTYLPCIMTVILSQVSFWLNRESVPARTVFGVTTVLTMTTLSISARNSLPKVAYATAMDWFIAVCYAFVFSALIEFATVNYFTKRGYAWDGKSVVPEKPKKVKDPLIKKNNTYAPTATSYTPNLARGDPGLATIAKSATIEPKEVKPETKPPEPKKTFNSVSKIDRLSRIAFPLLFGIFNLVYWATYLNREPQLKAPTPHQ

[4] = target: 5-hydroxytryptamine receptor 2B (Homo sapiens, UniProt P41595); format: functional, cell-based
[5] = target: T2, Prostaglandin G/H synthase 1 (Rattus norvegicus, UniProt Q63921); format: functional
T2 sequence (Q63921 whole entry): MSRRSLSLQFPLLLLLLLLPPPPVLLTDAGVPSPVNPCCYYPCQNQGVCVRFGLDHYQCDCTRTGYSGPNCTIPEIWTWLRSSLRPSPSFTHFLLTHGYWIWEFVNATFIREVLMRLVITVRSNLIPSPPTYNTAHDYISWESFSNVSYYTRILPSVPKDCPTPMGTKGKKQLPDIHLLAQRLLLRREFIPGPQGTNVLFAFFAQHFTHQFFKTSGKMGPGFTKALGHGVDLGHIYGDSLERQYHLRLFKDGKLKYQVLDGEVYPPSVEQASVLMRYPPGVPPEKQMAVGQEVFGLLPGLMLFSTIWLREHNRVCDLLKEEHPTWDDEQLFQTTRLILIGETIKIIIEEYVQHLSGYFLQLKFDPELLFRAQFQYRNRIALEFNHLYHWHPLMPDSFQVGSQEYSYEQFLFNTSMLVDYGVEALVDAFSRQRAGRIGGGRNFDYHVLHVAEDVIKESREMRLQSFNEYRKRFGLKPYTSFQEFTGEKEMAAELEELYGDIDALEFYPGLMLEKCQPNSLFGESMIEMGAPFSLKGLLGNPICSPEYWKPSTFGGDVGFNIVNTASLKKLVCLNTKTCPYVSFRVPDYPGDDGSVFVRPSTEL

[6] = target: T3, 5-hydroxytryptamine receptor 3A (Homo sapiens, UniProt P46098); format: functional
T3 sequence (P46098 whole entry): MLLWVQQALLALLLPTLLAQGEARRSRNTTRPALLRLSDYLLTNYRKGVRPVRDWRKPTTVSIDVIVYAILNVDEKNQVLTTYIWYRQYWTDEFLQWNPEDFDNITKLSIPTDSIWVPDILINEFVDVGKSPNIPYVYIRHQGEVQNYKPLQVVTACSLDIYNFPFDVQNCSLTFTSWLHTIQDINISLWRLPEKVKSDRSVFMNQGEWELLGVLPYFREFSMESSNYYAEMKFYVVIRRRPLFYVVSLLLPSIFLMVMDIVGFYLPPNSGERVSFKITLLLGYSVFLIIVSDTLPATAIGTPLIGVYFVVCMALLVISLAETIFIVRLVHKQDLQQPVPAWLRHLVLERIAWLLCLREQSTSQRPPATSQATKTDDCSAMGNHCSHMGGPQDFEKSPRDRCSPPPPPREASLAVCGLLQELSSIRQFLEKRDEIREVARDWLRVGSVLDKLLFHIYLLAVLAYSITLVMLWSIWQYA

Bile salt export pump = Bile salt export pump (Homo sapiens, UniProt O95342); format: functional
Sequence of Bile salt export pump (O95342 whole entry): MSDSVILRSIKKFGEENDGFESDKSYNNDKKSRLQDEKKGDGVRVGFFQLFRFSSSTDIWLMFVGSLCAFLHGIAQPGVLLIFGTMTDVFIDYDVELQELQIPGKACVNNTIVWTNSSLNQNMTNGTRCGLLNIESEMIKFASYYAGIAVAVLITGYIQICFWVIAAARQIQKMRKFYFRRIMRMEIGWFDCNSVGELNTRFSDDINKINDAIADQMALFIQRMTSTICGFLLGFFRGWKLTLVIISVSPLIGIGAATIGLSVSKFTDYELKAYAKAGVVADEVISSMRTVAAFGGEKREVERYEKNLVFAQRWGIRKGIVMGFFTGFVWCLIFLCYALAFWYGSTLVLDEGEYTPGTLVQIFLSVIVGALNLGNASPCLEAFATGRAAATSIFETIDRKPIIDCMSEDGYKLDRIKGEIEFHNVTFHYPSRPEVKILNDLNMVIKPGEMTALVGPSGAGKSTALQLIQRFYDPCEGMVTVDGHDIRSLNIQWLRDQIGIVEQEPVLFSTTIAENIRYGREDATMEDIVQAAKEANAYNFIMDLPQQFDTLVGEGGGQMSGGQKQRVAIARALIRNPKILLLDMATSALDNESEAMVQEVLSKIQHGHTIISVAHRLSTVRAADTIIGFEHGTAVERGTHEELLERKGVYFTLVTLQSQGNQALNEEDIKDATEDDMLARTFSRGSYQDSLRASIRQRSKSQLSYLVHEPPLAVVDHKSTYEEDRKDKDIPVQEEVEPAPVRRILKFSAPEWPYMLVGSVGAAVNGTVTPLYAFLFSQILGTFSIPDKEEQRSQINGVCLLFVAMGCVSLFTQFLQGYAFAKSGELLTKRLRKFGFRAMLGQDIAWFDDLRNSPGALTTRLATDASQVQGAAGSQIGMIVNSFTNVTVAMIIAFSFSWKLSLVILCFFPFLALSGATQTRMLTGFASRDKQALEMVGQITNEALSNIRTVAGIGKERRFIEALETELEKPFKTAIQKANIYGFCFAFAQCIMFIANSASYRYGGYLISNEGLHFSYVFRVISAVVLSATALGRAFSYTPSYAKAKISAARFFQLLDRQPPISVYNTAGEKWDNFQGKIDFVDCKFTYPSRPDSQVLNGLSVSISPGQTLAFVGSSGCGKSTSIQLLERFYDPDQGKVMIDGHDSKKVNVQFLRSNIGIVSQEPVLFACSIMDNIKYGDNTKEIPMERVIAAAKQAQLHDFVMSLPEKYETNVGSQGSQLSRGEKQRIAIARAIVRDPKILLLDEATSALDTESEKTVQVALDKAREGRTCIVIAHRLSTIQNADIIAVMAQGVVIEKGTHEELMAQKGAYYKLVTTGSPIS

Motilin receptor = Motilin receptor (Homo sapiens, UniProt O43193)
Sequence of Motilin receptor (O43193 whole entry): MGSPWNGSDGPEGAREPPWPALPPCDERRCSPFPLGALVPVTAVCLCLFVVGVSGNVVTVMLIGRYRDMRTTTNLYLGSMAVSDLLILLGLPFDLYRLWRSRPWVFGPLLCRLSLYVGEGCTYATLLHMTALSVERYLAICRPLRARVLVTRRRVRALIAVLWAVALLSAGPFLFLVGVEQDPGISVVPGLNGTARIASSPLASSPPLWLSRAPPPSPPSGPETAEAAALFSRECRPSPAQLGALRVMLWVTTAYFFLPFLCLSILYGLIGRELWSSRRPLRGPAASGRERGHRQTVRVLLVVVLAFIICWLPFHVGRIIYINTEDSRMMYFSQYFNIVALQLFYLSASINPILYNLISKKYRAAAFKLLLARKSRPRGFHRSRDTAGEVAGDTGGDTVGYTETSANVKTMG

Adenosine receptor A3 = target: T4, Adenosine receptor A3 (Homo sapiens, UniProt P0DMS8)
T4 sequence (P0DMS8 whole entry): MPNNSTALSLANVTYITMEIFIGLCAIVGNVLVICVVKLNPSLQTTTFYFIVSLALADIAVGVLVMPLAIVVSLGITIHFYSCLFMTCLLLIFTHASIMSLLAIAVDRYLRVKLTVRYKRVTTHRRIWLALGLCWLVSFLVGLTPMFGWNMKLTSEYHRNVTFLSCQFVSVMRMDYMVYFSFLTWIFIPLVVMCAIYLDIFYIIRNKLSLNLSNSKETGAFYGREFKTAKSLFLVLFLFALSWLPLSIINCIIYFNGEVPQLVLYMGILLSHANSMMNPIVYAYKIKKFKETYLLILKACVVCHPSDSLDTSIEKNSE

D(1A) dopamine receptor = D(1A) dopamine receptor (Homo sapiens, UniProt P21728); format: functional, cell-based
Sequence of D(1A) dopamine receptor (P21728 whole entry): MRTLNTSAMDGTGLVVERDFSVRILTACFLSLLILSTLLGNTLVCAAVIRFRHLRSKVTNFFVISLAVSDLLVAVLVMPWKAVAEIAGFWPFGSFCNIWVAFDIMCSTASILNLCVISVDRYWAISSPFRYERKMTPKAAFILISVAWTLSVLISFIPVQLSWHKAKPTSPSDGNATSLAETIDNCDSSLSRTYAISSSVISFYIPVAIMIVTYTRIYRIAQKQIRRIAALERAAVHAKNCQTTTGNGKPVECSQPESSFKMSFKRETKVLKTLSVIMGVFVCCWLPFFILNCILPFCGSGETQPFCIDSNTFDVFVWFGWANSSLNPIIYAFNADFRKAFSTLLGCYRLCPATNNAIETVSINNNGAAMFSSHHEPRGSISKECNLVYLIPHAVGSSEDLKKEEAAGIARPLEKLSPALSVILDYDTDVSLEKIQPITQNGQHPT

[7] = target: cGMP-inhibited 3',5'-cyclic phosphodiesterase 3A (Homo sapiens, UniProt Q14432); format: functional
Sequence of cGMP-inhibited 3',5'-cyclic phosphodiesterase 3A (Q14432 whole entry): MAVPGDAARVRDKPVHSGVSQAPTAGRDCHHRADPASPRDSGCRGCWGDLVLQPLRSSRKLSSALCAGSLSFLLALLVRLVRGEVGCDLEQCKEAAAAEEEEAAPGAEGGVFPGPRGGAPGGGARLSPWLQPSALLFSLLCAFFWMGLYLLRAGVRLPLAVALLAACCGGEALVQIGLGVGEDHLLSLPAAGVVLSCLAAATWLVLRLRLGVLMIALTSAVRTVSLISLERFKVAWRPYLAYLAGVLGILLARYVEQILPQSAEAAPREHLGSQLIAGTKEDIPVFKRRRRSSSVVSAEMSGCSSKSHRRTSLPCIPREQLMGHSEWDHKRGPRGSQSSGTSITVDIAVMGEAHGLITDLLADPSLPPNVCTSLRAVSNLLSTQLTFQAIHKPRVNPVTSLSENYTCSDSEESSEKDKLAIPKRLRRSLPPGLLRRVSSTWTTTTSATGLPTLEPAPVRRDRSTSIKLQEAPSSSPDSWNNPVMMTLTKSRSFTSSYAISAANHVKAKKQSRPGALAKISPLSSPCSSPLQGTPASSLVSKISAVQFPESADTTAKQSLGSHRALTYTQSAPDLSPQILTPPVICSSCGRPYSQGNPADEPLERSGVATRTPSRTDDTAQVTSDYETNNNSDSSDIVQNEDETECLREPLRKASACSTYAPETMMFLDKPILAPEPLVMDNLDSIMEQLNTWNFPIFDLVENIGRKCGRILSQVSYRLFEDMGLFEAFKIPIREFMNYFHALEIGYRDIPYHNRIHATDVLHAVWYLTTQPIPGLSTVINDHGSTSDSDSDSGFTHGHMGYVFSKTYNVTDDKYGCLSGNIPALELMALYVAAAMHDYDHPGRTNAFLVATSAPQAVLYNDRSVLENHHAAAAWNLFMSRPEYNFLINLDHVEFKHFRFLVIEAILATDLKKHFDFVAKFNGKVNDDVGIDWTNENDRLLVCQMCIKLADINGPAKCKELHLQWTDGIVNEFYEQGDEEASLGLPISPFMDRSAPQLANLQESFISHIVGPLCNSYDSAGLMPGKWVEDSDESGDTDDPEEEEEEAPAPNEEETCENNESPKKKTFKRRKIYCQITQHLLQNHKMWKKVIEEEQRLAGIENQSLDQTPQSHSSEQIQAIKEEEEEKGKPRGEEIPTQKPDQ

[8] = target: T5, Type-1 angiotensin II receptor (Homo sapiens, UniProt P30556)
T5 sequence (P30556 whole entry): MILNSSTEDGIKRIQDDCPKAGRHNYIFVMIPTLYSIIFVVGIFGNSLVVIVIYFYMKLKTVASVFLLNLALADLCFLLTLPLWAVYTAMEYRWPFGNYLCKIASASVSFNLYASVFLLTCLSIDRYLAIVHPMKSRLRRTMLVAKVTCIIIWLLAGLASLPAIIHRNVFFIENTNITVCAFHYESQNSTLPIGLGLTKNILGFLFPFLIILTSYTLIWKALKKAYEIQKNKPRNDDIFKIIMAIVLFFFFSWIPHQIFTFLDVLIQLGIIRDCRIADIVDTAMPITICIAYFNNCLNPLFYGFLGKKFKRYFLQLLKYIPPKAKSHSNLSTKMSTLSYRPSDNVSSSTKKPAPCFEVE

[9] = target: Delta-type opioid receptor (Homo sapiens, UniProt P41143)
Sequence of Delta-type opioid receptor (P41143 whole entry): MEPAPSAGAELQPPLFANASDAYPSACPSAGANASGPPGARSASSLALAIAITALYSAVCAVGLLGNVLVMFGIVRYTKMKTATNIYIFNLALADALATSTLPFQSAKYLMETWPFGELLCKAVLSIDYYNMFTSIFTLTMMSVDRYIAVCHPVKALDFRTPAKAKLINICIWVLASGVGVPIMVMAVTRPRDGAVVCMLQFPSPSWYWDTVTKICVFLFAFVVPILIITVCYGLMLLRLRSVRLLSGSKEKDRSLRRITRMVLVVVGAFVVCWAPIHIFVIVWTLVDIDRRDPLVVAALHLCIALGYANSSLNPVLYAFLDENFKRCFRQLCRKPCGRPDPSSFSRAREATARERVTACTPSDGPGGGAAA

D(3) dopamine receptor = D(3) dopamine receptor (Homo sapiens, UniProt P35462)
Sequence of D(3) dopamine receptor (P35462 whole entry): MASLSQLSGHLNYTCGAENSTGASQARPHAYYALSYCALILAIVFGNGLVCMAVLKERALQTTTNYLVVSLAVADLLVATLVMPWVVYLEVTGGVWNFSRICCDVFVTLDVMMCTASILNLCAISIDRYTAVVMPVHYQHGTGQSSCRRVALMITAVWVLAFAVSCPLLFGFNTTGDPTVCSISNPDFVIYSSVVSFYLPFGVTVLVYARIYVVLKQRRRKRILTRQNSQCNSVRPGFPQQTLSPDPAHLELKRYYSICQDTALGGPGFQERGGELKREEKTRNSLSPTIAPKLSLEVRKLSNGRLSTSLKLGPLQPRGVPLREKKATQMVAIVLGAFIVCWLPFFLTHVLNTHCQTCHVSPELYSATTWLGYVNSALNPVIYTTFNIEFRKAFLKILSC
Note: assay procedure not described here.

Sequence of Growth hormone secretagogue receptor type 1 (Q92847 whole entry): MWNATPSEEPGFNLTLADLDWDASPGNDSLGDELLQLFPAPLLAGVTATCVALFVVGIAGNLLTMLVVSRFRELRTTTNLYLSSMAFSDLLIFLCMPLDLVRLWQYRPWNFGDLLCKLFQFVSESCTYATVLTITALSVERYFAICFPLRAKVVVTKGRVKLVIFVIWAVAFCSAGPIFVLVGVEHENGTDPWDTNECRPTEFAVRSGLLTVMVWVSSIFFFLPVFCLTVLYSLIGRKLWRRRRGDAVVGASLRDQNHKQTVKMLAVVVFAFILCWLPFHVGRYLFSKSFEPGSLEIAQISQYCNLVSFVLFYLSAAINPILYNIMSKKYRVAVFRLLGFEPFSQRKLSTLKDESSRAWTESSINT

AC50 [1]	AC50 [2]	AC50 [3]	AC50 [4]	AC50 [5]	AC50 [6]	AC50 (Bile salt export pump)	AC50 (Motilin receptor)	AC50 (Adenosine receptor A3)	AC50 (D(1A) dopamine receptor)	AC50 [7]	AC50 [8]	AC50 [9]	AC50 (D(3) dopamine receptor)	SMILES
> 30 µM	> 30 µM	> 30 µM	> 30 µM	> 30 µM	> 30 µM	> 10 µM	> 30 µM	> 30 µM	> 30 µM	> 30 µM	> 30 µM	> 30 µM	> 30 µM	CC(C)(CO)c1cc2cc(NC(=O)C3(c4ccc5c(c4)OC(F)(F)O5)CC3)c(F)cc2n1C[C@@H](O)CO [TEZACAFTOR]
> 30 µM	> 30 µM	> 10 µM	> 10 µM	> 30 µM	> 30 µM	> 300 µM	> 10 µM	> 30 µM	> 10 µM	> 30 µM	> 30 µM	> 30 µM	> 30 µM	C[C@]12CCC(=O)C=C1CC[C@H]1[C@@H]3CC[C@](O)(C(=O)CO)[C@@]3(C)C[C@H](O)[C@@]12F [FLUDROCORTISONE]
> 30 µM	> 30 µM	> 30 µM	> 30 µM	> 30 µM	> 30 µM	> 300 µM	> 30 µM	> 30 µM	> 30 µM	> 30 µM	> 30 µM	> 30 µM	> 30 µM	CN(C)CCOC(c1ccc(Cl)cc1)c1ccccn1 (configuration not stated) [CARBINOXAMINE]
> 30 µM	> 30 µM	> 10 µM	> 10 µM	> 30 µM	> 30 µM	> 300 µM	> 10 µM	> 30 µM	> 30 µM	> 30 µM	> 30 µM	> 30 µM	> 30 µM	C[C@H](CS)C(=O)N1CCC[C@H]1C(=O)O [CAPTOPRIL]
> 10 µM	> 10 µM	> 10 µM	> 10 µM	> 10 µM	> 30 µM	> 300 µM	> 10 µM	> 10 µM	> 10 µM	> 30 µM	> 30 µM	> 30 µM	> 30 µM	CCC1(c2ccccc2)C(=O)NCNC1=O [PRIMIDONE]
> 30 µM	> 30 µM	> 30 µM	> 30 µM	> 30 µM	> 30 µM	> 300 µM	> 30 µM	> 30 µM	> 30 µM	> 30 µM	> 30 µM	> 10 µM	> 30 µM	C[C@H](Cn1cnc2c(N)ncnc21)OCP(=O)(O)O [TENOFOVIR ANHYDROUS]
> 30 µM	> 30 µM	> 10 µM	> 10 µM	> 30 µM	> 30 µM	130 µM	> 10 µM	> 30 µM	> 10 µM	> 30 µM	> 30 µM	> 30 µM	> 30 µM	O=C(O)COC(=O)Cc1ccccc1Nc1c(Cl)cccc1Cl [ACECLOFENAC]
> 30 µM	> 30 µM	> 30 µM	> 30 µM	> 30 µM	> 30 µM	> 300 µM	> 30 µM	> 30 µM	> 30 µM	> 30 µM	> 30 µM	> 30 µM	> 30 µM	CC(C)C[C@H](NC(=O)[C@H](Cc1ccccc1)NC(=O)c1cnccn1)B(O)O [BORTEZOMIB]

SMILES	AC50 [1]	AC50 [2]	AC50 [3]	AC50 [4]	AC50 [5]	AC50 [6]	AC50 (Bile salt export pump)	AC50 (Motilin receptor)	AC50 (Adenosine receptor A3)	AC50 (D(1A) dopamine receptor)	AC50 [7]	AC50 [8]	AC50 [9]	AC50 (D(3) dopamine receptor)
C[C@H](Nc1ncnc2[nH]cnc12)c1cc2cccc(Cl)c2c(=O)n1-c1ccccc1 [DUVELISIB]	> 30 µM	> 30 µM	> 30 µM	> 30 µM	> 30 µM	> 30 µM	45 µM	> 30 µM	> 30 µM	> 30 µM	> 30 µM	> 30 µM	> 30 µM	> 30 µM
Cc1c(C)c2c(c(C)c1O)CCC(C)(COc1ccc(CC3SC(=O)NC3=O)cc1)O2 (configuration not stated) [TROGLITAZONE]	> 30 µM	> 30 µM	> 30 µM	> 30 µM	22.9 µM	> 30 µM	5.01 µM	> 30 µM	8.48 µM	> 30 µM	6.19 µM	15.5 µM	> 30 µM	> 30 µM
CCOC(=O)[C@H](CCc1ccccc1)N[C@@H](C)C(=O)N1Cc2ccccc2C[C@H]1C(=O)O	> 30 µM	> 30 µM	> 10 µM	> 10 µM	> 30 µM	> 10 µM	100 µM	> 10 µM	> 30 µM	> 10 µM	> 10 µM	> 30 µM	> 10 µM	> 10 µM
c1cnc2cc3c(cc2n1)[C@@H]1CNC[C@H]3C1 [VARENICLINE]	> 30 µM	> 30 µM	> 30 µM	> 30 µM	> 30 µM	13 µM	> 300 µM	> 30 µM	> 30 µM	> 30 µM	> 30 µM	> 30 µM	> 30 µM	> 30 µM
Cn1cnc2c(F)c(Nc3ccc(Br)cc3F)c(C(=O)NOCCO)cc21 [BINIMETINIB]	> 30 µM	> 30 µM	> 30 µM	> 30 µM	> 30 µM	> 30 µM	87 µM	> 30 µM	> 30 µM	> 30 µM	> 30 µM	> 30 µM	> 30 µM	> 30 µM
